In one data set the target is human SGLT2 (Homo sapiens (Human), UniProt P31639). Kind of data set: SGLT2 functional assay: inhibition of AMG uptake in CHO-FlpIn cells stably expressing human SGLT2. The following applies: read-out: hSGLT2 IC50. Type of data set: cell-based. The text has this:
The SGLT2 functional assay was designed to detect the inhibition of methyl-alpha-D glucopyranoside (AMG—a non-metabolizable form of glucose) uptake via the SGLT2 transporter. The SGLT2 transporter recovers glucose from the proximal tubules of the kidney; its inhibition results in sugar wasted in the urine. The positive control compound, Phlorizin, is a known inhibitor of glucose uptake for SGLT2 and was used for comparing the high percent effect of SGLT2 inhibition of the test compounds.
CHO-FlpIn (Invitrogen, Carlsbad, Calif.) cells stably expressing human SGLT2 (pcDNA5/FRT) were plated in Iso-TC 96 well plates (Perkin Elmer, Waltham, Mass.) at a density of 100,000 cells/well in 100 microL of growth media (1:1 F-12/DMEM media (Gibco, Carlsbad, Calif.), 10% FBS (Sigma, St. Louis Mo.), 1× Pen/Strep (Gibco, Carlsbad, Calif.), 600 microg/mL Hygromycin (Invitrogen, Carlsbad, Calif.)). Prior to treating with test compound, confluent cells were serum starved for 2 hours at 37° C. in 1:1 F-12/DMEM media, replacing with fresh F-12/DMEM media after 1 hour. […] After incubation, cells were washed twice with ice cold wash buffer (uptake buffer containing 200 microM Phlorizin (Sigma), air dried and lysed in 30 microL of 200 mM NaOH and 1% SDS buffer on an orbital shaker. Microscint 40 (Perkin Elmer, Waltham, Mass.) was added to the lysed cells (giving a final volume of 200 microL) and mixed by orbital shaking for 30 minutes. Plates were stored in the dark overnight and quantitated in the 1540 Microbeta Trilux (Wallac, Waltham, Mass.) using a normalized protocol for ^14C detection. The percent effect of test compounds to inhibit AMG uptake was calculated using the following calculation: [% Effect=((ZPE−T)/(ZPE−HPE))×100%] where “ZPE” is the corrected counts per minute (CCPM) in control wells containing 0.5% DMSO, “T” is the CCPM in wells containing test compound at various concentrations of the standard curve, and “HPE” is the high percent effect referring to the CCPM in control wells containing 10 microM Phlorizin. The IC50 values were calculated using a dose response equation and are summarized for the compounds tested in Table 1. **For test compound 1, cells were pre-incubated with test compound 1 for 15 minutes prior to the addition of the appropriate amount of AMG (40 nCi AMG [U-^14C] (Perkin Elmer, Waltham, Mass.) in unlabelled AMG (Aldrich, St. Louis, Mo.)) per well yielding a final concentration of 200 microM AMG. […]

The target in the next data set is hSGLT1 (Homo sapiens (Human), UniProt P13866). Kind of data set: hSGLT1 inhibition (Table 1). Type of data set: cell-based. The following applies: individual runs (Run No.).
hSGLT1, sequence (P13866 whole entry): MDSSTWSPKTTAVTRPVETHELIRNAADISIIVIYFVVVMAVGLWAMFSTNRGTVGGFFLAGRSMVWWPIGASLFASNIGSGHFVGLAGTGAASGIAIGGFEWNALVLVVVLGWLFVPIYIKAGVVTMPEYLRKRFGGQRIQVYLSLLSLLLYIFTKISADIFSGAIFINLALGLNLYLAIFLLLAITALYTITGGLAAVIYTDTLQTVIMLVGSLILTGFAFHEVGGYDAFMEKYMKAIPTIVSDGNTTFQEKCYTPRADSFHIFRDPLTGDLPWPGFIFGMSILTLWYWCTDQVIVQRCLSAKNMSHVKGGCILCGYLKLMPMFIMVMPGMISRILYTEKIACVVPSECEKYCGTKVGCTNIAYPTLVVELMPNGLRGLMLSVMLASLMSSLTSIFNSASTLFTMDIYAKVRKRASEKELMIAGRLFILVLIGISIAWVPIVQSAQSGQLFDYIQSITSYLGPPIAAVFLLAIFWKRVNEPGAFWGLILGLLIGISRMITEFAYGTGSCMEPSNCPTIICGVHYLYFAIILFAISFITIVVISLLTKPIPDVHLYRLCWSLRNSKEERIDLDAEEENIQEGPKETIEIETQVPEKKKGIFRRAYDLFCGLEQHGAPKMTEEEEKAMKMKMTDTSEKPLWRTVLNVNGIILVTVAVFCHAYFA
The mark [1] stands for this setting: final concentration of 11.33 microM AMG, individual runs (Run No.).

Several values for one entry are separate records, joined by “and”; a condition that tells them apart may be missing. Equal values may be shown once. Read-outs that look alike come from different tables or passages of the source.

human SGLT2, sequence (P31639 whole entry): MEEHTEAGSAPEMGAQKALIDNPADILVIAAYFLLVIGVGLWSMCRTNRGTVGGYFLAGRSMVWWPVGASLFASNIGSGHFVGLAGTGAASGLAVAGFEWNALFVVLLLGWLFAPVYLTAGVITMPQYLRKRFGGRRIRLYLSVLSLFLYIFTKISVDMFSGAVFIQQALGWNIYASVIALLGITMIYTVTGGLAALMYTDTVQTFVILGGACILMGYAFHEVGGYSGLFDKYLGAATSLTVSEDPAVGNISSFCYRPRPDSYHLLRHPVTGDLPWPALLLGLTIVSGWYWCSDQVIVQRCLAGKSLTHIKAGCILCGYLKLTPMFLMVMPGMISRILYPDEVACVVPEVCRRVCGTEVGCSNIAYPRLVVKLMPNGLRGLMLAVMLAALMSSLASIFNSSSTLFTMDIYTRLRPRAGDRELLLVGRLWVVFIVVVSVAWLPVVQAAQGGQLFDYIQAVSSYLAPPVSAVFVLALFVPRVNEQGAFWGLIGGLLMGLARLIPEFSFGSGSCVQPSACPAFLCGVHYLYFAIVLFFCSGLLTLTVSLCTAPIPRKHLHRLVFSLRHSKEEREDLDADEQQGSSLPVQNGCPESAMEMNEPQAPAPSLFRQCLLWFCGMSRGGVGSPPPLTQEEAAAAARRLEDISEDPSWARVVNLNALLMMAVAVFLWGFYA

The term IC50 denotes the concentration needed to halve the response being measured. `OC[C@@]12CO[C@@](c3ccc(Cl)c(Cc4ccc(O)cc4)c3)(O1)[C@H](O)[C@@H](O)[C@@H]2O` [Example 1, (1S,2S,3S,4R,5S)-5-[4-chloro-3-(4-hydroxy-benzyl)-phenyl]-1-hydroxymethyl-6,8-dioxa-bicyclo[3.2.1]octane-2,3,4-triol]: at human SGLT2 (** final concentration of 200 microM AMG), the IC50 is 2.6 nM.
Usually melting point stands for the temperature of the solid-liquid transition. Molecule `CCOc1ccc(Cc2cc([C@]34OC[C@](COC(C)=O)(O3)[C@@H](OC(C)=O)[C@H](OC(C)=O)[C@H]4OC(C)=O)ccc2Cl)cc1` [Example 2, Acetic acid (1R,2S,3S,4R,5S)-3,4-diacetoxy-1-acetoxymethyl-5-[4-chloro-3-(4-ethoxy-benzyl)-phenyl]-6,8-dioxa-bicyclo[3.2.1]oct-2-yl ester] gave a melting point of 134.3 °C. Further, on human SGLT2 (setting [1]), the IC50 is 1090 nM and 1770 nM. The same molecule had an IC50 on hSGLT1 of 10000 nM.
In the case of `CCOc1ccc(Cc2cc([C@]34OC[C@](COC(C)=O)(O3)[C@@H](O)[C@H](O)[C@H]4O)ccc2Cl)cc1` [Example 3, Acetic acid (1R,2S,3S,4R,5S)-5-[4-chloro-3-(4-ethoxy-benzyl)-phenyl]-2,3,4-trihydoxy-6,8-dioxa-bicyclo[3.2.1]oct-1-ylmethyl ester], at hSGLT1, the IC50 is 3470 nM and 5830 nM.
`CCOC(=O)OC[C@@]12CO[C@@](c3ccc(Cl)c(Cc4ccc(OCC)cc4)c3)(O1)[C@H](O)[C@@H](O)[C@@H]2O` [Example 4, Carbonic acid (1R,2S,3S,4R,5S)-5-[4-chloro-3-(4-ethoxy-benzyl)-phenyl]-2,3,4-trihydroxy-6,8-dioxa-bicyclo[3.2.1]oct-1-ylmethyl ester ethyl ester]: the IC50 on human SGLT2 (setting [1]) stood at 45.9 nM; against hSGLT1, 3360 nM.
Regarding `CCOc1ccc(Cc2cc([C@]34OC[C@](CF)(O3)[C@@H](O)[C@H](O)[C@H]4O)ccc2Cl)cc1` [Example 8, (1S,2S,3S,4R,5S)-5-[4-Chloro-3-(4-ethoxy-benzyl)-phenyl]-1-fluoromethyl-6,8-dioxa-bicyclo[3.2.1]octane-2,3,4-triol], the IC50 was 4 nM (2×) and 3 nM at human SGLT2 (setting [1]); 1970 nM and 1890 nM and 2000 nM on hSGLT1.

The values above are taken from patent US8669380B2, “Dioxa-bicyclo[3.2.1]octane-2,3,4-triol derivatives” (Pfizer Inc., priority 2009, dated 2014).
